Among the data in ChEMBL document CHEMBL1150533, “Inhibitors of the adenovirus type 2 proteinase based on substrate-like tetrapeptide nitriles” (Bioorg Med Chem Lett, 1995) are Ki, Inhibition and IC50 values, retold here.

Peptide text beside a SMILES is read from it. * marks the point of attachment. Cbz = O=C(OCc1ccccc1)*; Boc = CC(C)(C)OC(=O)*; N(Me)OMe = CON(C)*; OtBu = CC(C)(C)O*; NMeEt = CCN(C)*

What all share (assay type): functional
The subject of test [1] is Human adenovirus 2. Briefly: Compound was tested for noncompetitive inhibition of Adenovirus type 2 proteinase.
For test [2], the system named is Human adenovirus 2. Briefly: Inhibitory activity against Adenovirus type 2 proteinase. The arrangement: concentration or dose not given beside the values.
For test [3], the system named is Human adenovirus 2. Kind of test: Compound was tested for inhibition of Adenovirus type 2 proteinase. The settings on record: Human mastadenovirus C.
Test [4] deals with Human adenovirus 2. Briefly: Compound was tested for inhibition of Adenovirus type 2 proteinase; showed no inhibitory activity. Also on record: concentration or dose not given beside the values.
The test system of test [5] is Human adenovirus 2. Kind of test: Compound was tested for inhibition of Adenovirus type 2 proteinase; Not very soluble and inactive at maximum soluble concentration.
The subject of test [6] is Human adenovirus 2. Briefly: Inhibitory activity against Adenovirus type 2 proteinase; showed no inhibitory activity.

As usually defined, the Ki is a dissociation constant, usually derived from enzyme kinetics or from competition with a known ligand. As usually defined, the Inhibition is the drop in the measured response relative to a control, in per cent. A word on the IC50: it is the midpoint of a concentration-inhibition curve. `COC(CNC(=O)CNC(=O)[C@H](C)NC(=O)[C@H](CC(C)C)NC(=O)OCc1ccccc1)OC` displayed a Ki in the test on Human adenovirus 2 [1] of 380 µM. In addition, the Inhibition in the test with Human adenovirus 2 [2] is 59%. Further, the IC50 in the test on Human adenovirus 2 [3] is 400 µM.
The compound `CCN(C)C(=O)CNC(=O)CNC(=O)[C@H](C)NC(=O)[C@H](CC(C)C)NC(=O)OCc1ccccc1` (Cbz-LAGG-NMeEt) showed an Inhibition in the test on Human adenovirus 2 [4] of 0%.
Same read-out and setting: to `CC(C)C[C@H](NC(=O)OCc1ccccc1)C(=O)N[C@@H](C)C(=O)NCC(=O)NCC(=O)N(C)C` (Cbz-LAGG-NMe2) belongs 0%.
In the case of `CC(C)C[C@H](NC(=O)OC(C)(C)C)C(=O)N[C@@H](C)C(=O)NCC(=O)NCC(=O)OC(C)(C)C` (Boc-LAGG-OtBu), the Inhibition with Human adenovirus 2 [2] is 40%.
As to `CC(C)C[C@H](N)C(=O)N[C@@H](C)C(=O)NCC(=O)NCC(N)=O` (H-LAGG-NH2), the Inhibition in the test with Human adenovirus 2 [4] is reported as 0%.
With `CNC(=O)CNC(=O)CNC(=O)[C@H](C)NC(=O)[C@H](CC(C)C)NC(=O)OCc1ccccc1` (Cbz-LAGG-NHMe), the Inhibition with Human adenovirus 2 [5] is on record as 0%.
Take `CC(C)C[C@H](NC(=O)C(F)(F)F)C(=O)N[C@@H](C)C(=O)NCC(=O)NCC#N`: the Inhibition with Human adenovirus 2 [2] stood at 50%. Also, 6900 µM corresponded to half-maximal inhibition with Human adenovirus 2 [3] (IC50).
With `CC(C)C[C@H](NC(=O)OCc1ccccc1)C(=O)N[C@@H](C)C(=O)NCC(=O)NCC#N`, in the test on Human adenovirus 2 [1], the affinity, expressed as Ki, was 16 µM. Also, in the test with Human adenovirus 2 [2], the Inhibition amounted to 95%. Further, the IC50 in the test on Human adenovirus 2 [3] was found to be 10 µM.
In the test on Human adenovirus 2 [6], `CC(C)C[C@H](NC(=O)OCc1ccccc1)C(=O)N[C@@H](C)C(=O)NCC(=O)NCC(=O)O` (Cbz-LAGG-OH) registered an Inhibition of 0%.
With `Cl.N#CCN`, in the test with Human adenovirus 2 [4], the Inhibition came to 0%.
As to `C[C@H](NC(=O)C(F)(F)F)C(=O)NCC(=O)NCC#N`, the Inhibition in the test with Human adenovirus 2 [2] is reported as 5%.
For `CON(C)C(=O)CNC(=O)CNC(=O)[C@H](C)NC(=O)[C@H](CC(C)C)NC(=O)OCc1ccccc1` (Cbz-LAGG-{N(Me)OMe}), the Inhibition in the test with Human adenovirus 2 [4] amounted to 0%.
`CC(C)C[C@H](NC(=O)OCc1ccccc1)C(=O)N[C@@H](C)C(=O)NCC(=O)NCC(N)=O` (Cbz-LAGG-NH2): in the test on Human adenovirus 2 [5], the Inhibition is 0%.
Take `COC(CNC(=O)CNC(=O)[C@H](C)NC(=O)[C@H](CC(C)C)NC(=O)OC(C)(C)C)OC`: the Inhibition in the test with Human adenovirus 2 [2] was 59%. For the same compound, in the test on Human adenovirus 2 [3], the 50% inhibitory concentration (IC50) is 1800 µM.
Compound `CCOC(=O)CNC(=O)CNC(=O)[C@H](C)NC(=O)[C@H](CC(C)C)NC(=O)OCc1ccccc1` (Cbz-LAGG-OEt) displayed an Inhibition in the test on Human adenovirus 2 [2] of 67%.
`CNC(=O)CNC(=O)CNC(=O)[C@H](C)NC(=O)[C@@H](N)CC(C)C` (H-LAGG-NHMe) came in with an Inhibition with Human adenovirus 2 [4] of 0%.
On the same count and under the same terms, the figure for `N#CCNC(=O)CNC(=O)C(F)(F)F` is 0%.
`COC(=O)CNC(=O)CNC(=O)[C@H](C)NC(=O)[C@H](CC(C)C)NC(=O)OCc1ccccc1` (Cbz-LAGG-OMe) had an Inhibition with Human adenovirus 2 [2] of 72%.
